The target in this data set is CYP3A4 (Homo sapiens, UniProt P08684). Nature of the data set: Inhibition of CYP3A4 in human liver microsomes using midazolam as substrate. The settings on record: probe midazolam. (In general: Liver microsomes are a subcellular fraction often used to study metabolism.)
CYP3A4, sequence (P08684 whole entry): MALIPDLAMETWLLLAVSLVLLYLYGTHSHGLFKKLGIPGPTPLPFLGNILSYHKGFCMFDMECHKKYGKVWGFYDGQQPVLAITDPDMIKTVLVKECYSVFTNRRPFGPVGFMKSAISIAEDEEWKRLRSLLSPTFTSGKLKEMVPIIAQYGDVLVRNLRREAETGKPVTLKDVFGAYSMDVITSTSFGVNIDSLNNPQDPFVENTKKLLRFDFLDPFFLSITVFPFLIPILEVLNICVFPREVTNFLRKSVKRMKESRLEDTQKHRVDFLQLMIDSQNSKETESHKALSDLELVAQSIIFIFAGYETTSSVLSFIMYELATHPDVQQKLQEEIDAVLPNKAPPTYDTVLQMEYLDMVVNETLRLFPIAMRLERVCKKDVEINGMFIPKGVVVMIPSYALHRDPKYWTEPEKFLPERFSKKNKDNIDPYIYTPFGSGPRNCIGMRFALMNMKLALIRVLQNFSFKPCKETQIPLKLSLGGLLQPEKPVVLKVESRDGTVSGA

Usually Ki stands for the dissociation constant of the complex between target and ligand, obtained from inhibition or displacement. A lower Ki goes with a stronger hold on the target. For the molecule `COc1c(N2CC[C@@H](C3(N)CC3)C2)ccc2c(=O)c(C(=O)O)cn([C@@H]3C[C@@H]3F)c12` [DX-619], the affinity, expressed as Ki, was 67.9 µM.

The values above are taken from BindingDB's records for PubMed 35202969 (Maharishi Markandeshwar (Deemed To Be University), 2022).
